Each block holds one compound with its values, some of them ahead of it.
Test system: K98450-129-R-PDC complex spheroid growth, percent test/control
Assay: Anticancer human tumor K98450-129-R-PDC patient-derived colon adenocarcinoma cell line growth inhibition [RAS]
Details: for IC50: curve of first compound; for viability, T/C: stronger effect = lower value
Outline: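 Multi-cell-type spheroids: tumor cells plus HUVEC endothelial cells and mesenchymal stem cells. RAS-pathway inhibitors were combined with targeted agents, each dosed in half-log steps down from clinical Cmax, or from 10 microM when Cmax was unknown.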

[1] = second compound 0.0316 µM, first compound 0.0316 µM
[2] = second compound 0.0316 µM, first compound 0.1 µM
[3] = second compound 0.0316 µM, first compound 0.316 µM
[4] = second compound 0.0316 µM, first compound 1 µM
[5] = second compound 0.1 µM, first compound 0.0316 µM
[6] = second compound 0.1 µM, first compound 0.1 µM
[7] = second compound 0.1 µM, first compound 0.316 µM
[8] = second compound 0.1 µM, first compound 1 µM
[9] = second compound 0.316 µM, first compound 0.0316 µM
[10] = second compound 0.316 µM, first compound 0.1 µM
[11] = second compound 0.316 µM, first compound 0.316 µM
[12] = second compound 0.316 µM, first compound 1 µM
[13] = second compound 1 µM, first compound 0.0316 µM
[14] = second compound 1 µM, first compound 0.1 µM
[15] = second compound 1 µM, first compound 0.316 µM
[16] = second compound 1 µM, first compound 1 µM
[17] = second compound 3.16 µM, first compound 0.0316 µM
[18] = second compound 3.16 µM, first compound 0.1 µM
[19] = second compound 3.16 µM, first compound 0.316 µM
[20] = second compound 3.16 µM, first compound 1 µM
[21] = second compound 10 µM, first compound 0.0316 µM
[22] = second compound 10 µM, first compound 0.1 µM
[23] = second compound 10 µM, first compound 0.316 µM
[24] = second compound 10 µM, first compound 1 µM
[25] = second compound 0.0316 µM, first compound 0.000949 µM
[26] = second compound 0.0316 µM, first compound 0.003 µM
[27] = second compound 0.0316 µM, first compound 0.00949 µM
[28] = second compound 0.0316 µM, first compound 0.03 µM
[29] = second compound 0.0316 µM, first compound 0.0949 µM
[30] = second compound 0.0316 µM, first compound 0.3 µM
[31] = second compound 0.1 µM, first compound 0.000949 µM
[32] = second compound 0.1 µM, first compound 0.003 µM
[33] = second compound 0.1 µM, first compound 0.00949 µM
[34] = second compound 0.1 µM, first compound 0.03 µM
[35] = second compound 0.1 µM, first compound 0.0949 µM
[36] = second compound 0.1 µM, first compound 0.3 µM
[37] = second compound 0.316 µM, first compound 0.000949 µM
[38] = second compound 0.316 µM, first compound 0.003 µM
[39] = second compound 0.316 µM, first compound 0.00949 µM
[40] = second compound 0.316 µM, first compound 0.03 µM
[41] = second compound 0.316 µM, first compound 0.0949 µM
[42] = second compound 0.316 µM, first compound 0.3 µM
[43] = second compound 1 µM, first compound 0.000949 µM
[44] = second compound 1 µM, first compound 0.003 µM
[45] = second compound 1 µM, first compound 0.00949 µM
[46] = second compound 1 µM, first compound 0.03 µM
[47] = second compound 1 µM, first compound 0.0949 µM
[48] = second compound 1 µM, first compound 0.3 µM
[49] = second compound 3.16 µM, first compound 0.000949 µM
[50] = second compound 3.16 µM, first compound 0.003 µM
[51] = second compound 3.16 µM, first compound 0.00949 µM
[52] = second compound 3.16 µM, first compound 0.03 µM
[53] = second compound 3.16 µM, first compound 0.0949 µM
[54] = second compound 3.16 µM, first compound 0.3 µM
[55] = second compound 10 µM, first compound 0.000949 µM
[56] = second compound 10 µM, first compound 0.003 µM
[57] = second compound 10 µM, first compound 0.00949 µM
[58] = second compound 10 µM, first compound 0.03 µM
[59] = second compound 10 µM, first compound 0.0949 µM
[60] = second compound 10 µM, first compound 0.3 µM
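Further: spheroids exposed to agents for seven days before the viability readout.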
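Wherever viability, T/C is given: luminescence used as a proxy for viable cell amount.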

- IC50 (second compound 0.0316 µM): 164 nM
- IC50 (second compound 0.1 µM): 143 nM
- IC50 (second compound 0.316 µM): 137 nM
- IC50 (second compound 1 µM): 93.2 nM
- IC50 (second compound 3.16 µM): 111 nM
- IC50 (second compound 10 µM): 134 nM
Structure (SMILES): C=CC(=O)N1CCN(c2nc(OCC3CCCN3C)nc3c(F)c(-c4nc(N)cc(C)c4C(F)(F)F)c(Cl)cc23)C(C)C1 (stereo not drawn) + C#Cc1c(F)ccc2cc(O)cc(-c3ncc4c(N5CC6CCC(C5)N6)nc(OCC56CCCN5CC(F)C6)nc4c3F)c12
- viability, T/C (second compound 0.0316 µM, first compound 0.00316 µM): 94.9%
- viability, T/C (second compound 0.0316 µM, first compound 0.01 µM): 81.4%
- viability, T/C [1]: 68.7%
- viability, T/C [2]: 55%
- viability, T/C [3]: 43.6%
- viability, T/C [4]: 30.8%
- viability, T/C (second compound 0.1 µM, first compound 0.00316 µM): 95.4%
- viability, T/C (second compound 0.1 µM, first compound 0.01 µM): 81.3%
- viability, T/C [5]: 68.7%
- viability, T/C [6]: 54.3%
- viability, T/C [7]: 40.5%
- viability, T/C [8]: 31.4%
- viability, T/C (second compound 0.316 µM, first compound 0.00316 µM): 97.7%
- viability, T/C (second compound 0.316 µM, first compound 0.01 µM): 86.4%
- viability, T/C [9]: 70.9%
- viability, T/C [10]: 58.8%
- viability, T/C [11]: 33.9%
- viability, T/C [12]: 32.6%
- viability, T/C (second compound 1 µM, first compound 0.00316 µM): 93.4%
- viability, T/C (second compound 1 µM, first compound 0.01 µM): 88.7%
- viability, T/C [13]: 67%
- viability, T/C [14]: 50.2%
- viability, T/C [15]: 37.2%
- viability, T/C [16]: 33.7%
- viability, T/C (second compound 3.16 µM, first compound 0.00316 µM): 94.3%
- viability, T/C (second compound 3.16 µM, first compound 0.01 µM): 80.4%
- viability, T/C [17]: 69.7%
- viability, T/C [18]: 52%
- viability, T/C [19]: 34.7%
- viability, T/C [20]: 26.1%
- viability, T/C (second compound 10 µM, first compound 0.00316 µM): 82.9%
- viability, T/C (second compound 10 µM, first compound 0.01 µM): 78.4%
- viability, T/C [21]: 68.8%
- viability, T/C [22]: 53.1%
- viability, T/C [23]: 38.9%
- viability, T/C [24]: 24.6%

- IC50 (second compound 0.0316 µM): 415 nM
- IC50 (second compound 0.1 µM): 428 nM
- IC50 (second compound 0.316 µM): 482 nM
- IC50 (second compound 1 µM): 466 nM
- IC50 (second compound 3.16 µM): 460 nM
- IC50 (second compound 10 µM): 401 nM
Structure (SMILES): CC(=O)OC12COC1CC(O)C1(C)C(=O)C(O)C3=C(C)C(OC(=O)C(O)C(NC(=O)OC(C)(C)C)c4ccccc4)CC(O)(C(OC(=O)c4ccccc4)C21)C3(C)C (stereo not drawn) + C#Cc1c(F)ccc2cc(O)cc(-c3ncc4c(N5CC6CCC(C5)N6)nc(OCC56CCCN5CC(F)C6)nc4c3F)c12
- viability, T/C [1]: 105%
- viability, T/C [2]: 98%
- viability, T/C [3]: 54.7%
- viability, T/C [4]: 34.7%
- viability, T/C (second compound 0.0316 µM, first compound 3.16 µM): 33.1%
- viability, T/C (second compound 0.0316 µM, first compound 10 µM): 35.2%
- viability, T/C [5]: 109%
- viability, T/C [6]: 103%
- viability, T/C [7]: 54.7%
- viability, T/C [8]: 38%
- viability, T/C (second compound 0.1 µM, first compound 3.16 µM): 32.8%
- viability, T/C (second compound 0.1 µM, first compound 10 µM): 34.8%
- viability, T/C [9]: 105%
- viability, T/C [10]: 103%
- viability, T/C [11]: 59%
- viability, T/C [12]: 35.5%
- viability, T/C (second compound 0.316 µM, first compound 3.16 µM): 32.4%
- viability, T/C (second compound 0.316 µM, first compound 10 µM): 33.4%
- viability, T/C [13]: 101%
- viability, T/C [14]: 101%
- viability, T/C [15]: 57.9%
- viability, T/C [16]: 36.6%
- viability, T/C (second compound 1 µM, first compound 3.16 µM): 32.6%
- viability, T/C (second compound 1 µM, first compound 10 µM): 32.1%
- viability, T/C [17]: 93.2%
- viability, T/C [18]: 97.1%
- viability, T/C [19]: 57.9%
- viability, T/C [20]: 35%
- viability, T/C (second compound 3.16 µM, first compound 3.16 µM): 34.2%
- viability, T/C (second compound 3.16 µM, first compound 10 µM): 31.9%
- viability, T/C [21]: 86.1%
- viability, T/C [22]: 87.8%
- viability, T/C [23]: 55%
- viability, T/C [24]: 31.9%
- viability, T/C (second compound 10 µM, first compound 3.16 µM): 30.6%
- viability, T/C (second compound 10 µM, first compound 10 µM): 29%

- IC50 (second compound 0.0316 µM): > 300 nM
- IC50 (second compound 0.1 µM): > 300 nM
- IC50 (second compound 0.316 µM): > 300 nM
- IC50 (second compound 1 µM): > 300 nM
- IC50 (second compound 3.16 µM): > 300 nM
- IC50 (second compound 10 µM): > 300 nM
Structure (SMILES): CC1(C)CCC(Nc2ncc(C(F)(F)F)c(-c3c[nH]c4c(P(C)(C)=O)c(C#N)ccc34)n2)CN1 (stereo not drawn) + C#Cc1c(F)ccc2cc(O)cc(-c3ncc4c(N5CC6CCC(C5)N6)nc(OCC56CCCN5CC(F)C6)nc4c3F)c12
- viability, T/C [25]: 102%
- viability, T/C [26]: 103%
- viability, T/C [27]: 100%
- viability, T/C [28]: 105%
- viability, T/C [29]: 88.5%
- viability, T/C [30]: 58.6%
- viability, T/C [31]: 107%
- viability, T/C [32]: 105%
- viability, T/C [33]: 111%
- viability, T/C [34]: 100%
- viability, T/C [35]: 89.3%
- viability, T/C [36]: 66.6%
- viability, T/C [37]: 111%
- viability, T/C [38]: 105%
- viability, T/C [39]: 99.8%
- viability, T/C [40]: 100%
- viability, T/C [41]: 89.9%
- viability, T/C [42]: 69.7%
- viability, T/C [43]: 102%
- viability, T/C [44]: 97.8%
- viability, T/C [45]: 99.3%
- viability, T/C [46]: 105%
- viability, T/C [47]: 89.2%
- viability, T/C [48]: 64%
- viability, T/C [49]: 96.1%
- viability, T/C [50]: 95.3%
- viability, T/C [51]: 95.1%
- viability, T/C [52]: 97.7%
- viability, T/C [53]: 94.2%
- viability, T/C [54]: 66.7%
- viability, T/C [55]: 89%
- viability, T/C [56]: 94.2%
- viability, T/C [57]: 91.4%
- viability, T/C [58]: 98.4%
- viability, T/C [59]: 85.9%
- viability, T/C [60]: 61.9%

- IC50 (second compound 0.0316 µM): 36.4 nM
- IC50 (second compound 0.1 µM): 44.1 nM
- IC50 (second compound 0.316 µM): 47.9 nM
- IC50 (second compound 1 µM): 46.9 nM
- IC50 (second compound 3.16 µM): 43.3 nM
- IC50 (second compound 10 µM): 32.8 nM
Structure (SMILES): CCc1c2c(nc3ccc(O)cc13)-c1cc3c(c(=O)n1C2)COC(=O)[C@]3(O)CC + C#Cc1c(F)ccc2cc(O)cc(-c3ncc4c(N5CC6CCC(C5)N6)nc(OCC56CCCN5CC(F)C6)nc4c3F)c12
- viability, T/C [25]: 103%
- viability, T/C [26]: 102%
- viability, T/C [27]: 75.7%
- viability, T/C [28]: 52.2%
- viability, T/C [29]: 43.3%
- viability, T/C [30]: 33.5%
- viability, T/C [31]: 109%
- viability, T/C [32]: 101%
- viability, T/C [33]: 80.5%
- viability, T/C [34]: 52.5%
- viability, T/C [35]: 44.4%
- viability, T/C [36]: 33%
- viability, T/C [37]: 108%
- viability, T/C [38]: 101%
- viability, T/C [39]: 84.5%
- viability, T/C [40]: 54.4%
- viability, T/C [41]: 43.6%
- viability, T/C [42]: 34%
- viability, T/C [43]: 109%
- viability, T/C [44]: 100%
- viability, T/C [45]: 86.8%
- viability, T/C [46]: 54%
- viability, T/C [47]: 42.9%
- viability, T/C [48]: 36.9%
- viability, T/C [49]: 95.7%
- viability, T/C [50]: 89.3%
- viability, T/C [51]: 78.1%
- viability, T/C [52]: 51.9%
- viability, T/C [53]: 43.6%
- viability, T/C [54]: 33.1%
- viability, T/C [55]: 87.2%
- viability, T/C [56]: 84.3%
- viability, T/C [57]: 75.5%
- viability, T/C [58]: 50.9%
- viability, T/C [59]: 37.2%
- viability, T/C [60]: 33.8%

— PubChem BioAssay AID2060891 (Molecular Pharmacology Branch, DTP, NCI, 2025)
